Read-outs that look alike come from different tables or passages of the source. Where a SMILES comes first, the peptide text is derived from it.
Columns and labels:
Aphis gossypii = conditions: Greece; cotton; unformulated; counted 3 days following application (FIG. 14)
From the text: (§1) The data has been processed in the ARM Field Trials software under license.
AgriScience conducted a field trial in Greece, investigating the efficacy of insecticidal peptides on aphids on cotton crop.

[1] = test system: Amrasca biguttula (leaf hopper); conditions: unformulated; 3 and 7 days after application (FIG. 16)
From the text: as §1

Aphis fabae = conditions: unformulated; for reduction in Aphis fabae numbers as a percentage of untreated control crop: vining peas
From the text: as §1

Bumblebee = assay: Bee oral toxicity test adapted from OECD Test No. 247 (Bumblebee, Acute Oral Toxicity Test); type: in vivo; conditions: after 96 hours of application, compared to Imidacloprid (FIG. 10)
Experimental: Bee oral testing protocol was carried out adapted from OECD Test No. 247: Bumblebee, Acute Oral Toxicity Test. The toxicity of SB—P-46 was compared with a negative control of sucrose or vehicle, and with a current commercial insecticide Imidacloprid.

Myzus persicae = conditions: unformulated peptide; leaf dip; mortality assessed at 72, 96 and 120 hours; compared to vehicle and Spirotetramat (FIGS. 6 and 7)
Experimental: Dip a 2.5 cm leaf disc into 3 ml of treatment solution allowing the treatment to coat the leaf. Leave the disc to dry for 1 hour and place onto the set agar. Place insects (aphids) onto each of the leaf discs. Each unit is sealed with a close-fitting, ventilated lid. Place the agar dishes in a small plastic tray lined with moist tissue paper and ensure the water trays in the bottom of the incubator are filled with clean water and place within the incubator. An assessment of mortality is made at 72, 96 and 120 hours. Leaf dip assays were performed with unformulated SB—P-46, and compared to a negative control vehicle and a current commercial insecticide Spirotetramat.

## CC(C)C[C@H](NC(=O)[C@H](CCCNC(=N)N)NC(=O)[C@@H]1CCCN1C(=O)[C@H](CO)NC(=O)[C@H](Cc1ccccc1)NC(=O)[C@@H]1CCCN1C(=O)[C@@H]1CCCN1C(=O)[C@H](CO)NC(=O)[C@H](Cc1ccc(O)cc1)NC(=O)[C@@H]1CCCN1C(=O)[C@@H]1CCCN1C(=O)[C@@H](N)CO)C(N)=O [SB—P-46, [Hy]-SPPYSPPFSPRL-[NH2]] (H-SPPYSPPFSPRL-NH2)
Aphis gossypii
  reduction in Aphis gossypii numbers as a percentage of untreated control crop: close efficacy to the conventional pesticide equivalent tested
[1]
  activity against naturally infested Amrasca biguttula (leaf hopper): acted comparably to Flipper insecticide
Aphis fabae; Field trial 1, Chatteris location, counted 14 days following application (FIG. 11)
  reduction in Aphis fabae numbers as a percentage of untreated control crop: performed comparably to the conventional insecticides Stealth and Teppeki
Aphis fabae; Wigtoft location, counted 4 days following application (FIG. 12)
  reduction in Aphis fabae numbers as a percentage of untreated control crop: similarly efficacious activity
Aphis fabae; further field trials, 4 and 8 days after application (FIG. 15)
  activity against naturally infested Aphis fabae: acted comparably to Hallmark Zeon insecticide
Aphis fabae; third PGRO trial (slot trial), Holbeach location, counted 7 days following application, low aphid infestation (FIG. 13)
  reduction in Aphis fabae numbers as a percentage of untreated control crop: performed as efficaciously as the conventional pesticides tested
Bumblebee
  toxicity to bees (% survival): far lower toxicity
Myzus persicae
  activity against Myzus persicae (mortality): good activity

Source: US12281143B1, “Insect neuropeptides 1” (Solasta Bio Limited, priority 2023, dated 2025)
